Data set [1] has as its target T1, α1G T-type calcium channel (Homo sapiens, UniProt O43497).
T1 construct: host or cells: HEK293
As to the kind of experiment: Assay for % inhibiting activity against T-type calcium channel using FDSS6000 (fluo-3 calcium imaging, KCl activation). Type of data set: cell-based. As to conditions: HEK293, 10 μM; HEK293 cells stably expressing α1G T-type calcium channel and Kir2.1; compounds of the examples; read-out: FDSS (% inhibition)/10uM. The protocol: In the present invention, in order to examine an efficient inhibitor against the T-type calcium channel, a primary assay for T-type calcium channel inhibiting activity was conducted by a high-efficient assay using FDSS6000, wherein mammal HEK293 cell lines (originated from human kidney carcinoma cells) that specifically express α1G of the T-type calcium channel was used for primary assay. Through the primary assay, compounds that show meaningful inhibition effects were selected. The selected compounds were used in a second assay for T-type calcium channel inhibiting activity using an electrophysiological whole cell patch clamp method, wherein mammal HEK293 cell lines (originated from human kidney carcinoma cells) that specifically express α1G of the T-type calcium channel was used for the second assay. Mibefradil, which had been developed as a T-type calcium channel inhibitor, was used as a reference.
At 12-24 hours before being used for this assay, cells of HEK293 cell line (α1G cell line: KCTC 10519BP, Korean Collection for Type Cultures), which stably express α1G T-type calcium channel and Kir2.1, were sub-cultured in a poly-L-lysine treated 96-well plate with the density of 4×10^4 per well using a 96-well cell dispenser (Titertek). On the day of assay, the 96-well plate to which the cells were attached was washed three times with HEPES buffer solution (150 mM of NaCl, 5 mM of KCl, 1 mM of MgCl2, 2 mM of CaCl2, 10 mM of HEPES, 10 mM of glucose; pH 7.4) using a 96-well plate automatic washing device (Bio Tek), then reacted with HEPES buffer solution containing 5 μM fluo-3/AM and 0.001% Pluronic F-127 at room temperature for 1 hour, to label with fluorescent dye, and then further washed two times with HEPES buffer solution.
Thereafter, at 10 minutes before the measurement using device FDSS6000, washing with HEPES buffer solution containing 10 mM CaCl2 was conducted once more, and the final volume was adjusted to 81 μl. Besides the above 96-well plate containing the cells, two additional drug 96-well plates were provided, wherein the 96-well plates contained an inhibiting drug and KCl (final concentration: 75 mM) for activating the T-type calcium channel, respectively. Since most of cell-based HTS devices are equipped with a liquid application system for injection of drug, but have no liquid sucking system, the inhibiting drug to be tested and KCl were respectively provided at a five-times higher concentration in 10 mM CaCl2 HEPES buffer solution at the amount of 27 μl, diluted by five-times at the final cell plate volume of 135 μl, and then used in this test. The concrete method of measurement using FDSS6000 was as follows. After recording the reference value of 20 seconds, the change of intracellular Ca^2+ concentration that was induced by treatment of the inhibiting drug to be tested for 75 seconds followed by administration of KCl was measured, wherein the percentage (%) inhibition effect of the test drug, through estimating the area of ratio value of 340/380 in the control without treatment of the test drug, was 100%. As a reference drug, 10 μM mibefradil was used.
For accurate calcium imaging, the light source of 4 xenon lamps in FDSS6000 were radiated to selectively expose the cells to the excitation wavelength (340 nm and 380 nm) by a computer-controlled filter wheel. Data was obtained at intervals of 1.23 seconds. The emitter fluorescence light inflowed through a long-pass filter was obtained as an average 340/380 ratio value for each well in the 96-wells by using a CCD camera and a digital fluorescence analyzer in FDSS6000. All image data and analyses were obtained by using a FDSS6000-exclusive program from Hamamatsu Photonics.
The obtained results are shown in Table 2 (the results from the compounds according to the examples of the present invention) and Table 3 (the results from the compounds according to the comparative example where R6 is a phenyl group) [FDSS (% inhibition) 10 μM].

T1 sequence (O43497 whole entry): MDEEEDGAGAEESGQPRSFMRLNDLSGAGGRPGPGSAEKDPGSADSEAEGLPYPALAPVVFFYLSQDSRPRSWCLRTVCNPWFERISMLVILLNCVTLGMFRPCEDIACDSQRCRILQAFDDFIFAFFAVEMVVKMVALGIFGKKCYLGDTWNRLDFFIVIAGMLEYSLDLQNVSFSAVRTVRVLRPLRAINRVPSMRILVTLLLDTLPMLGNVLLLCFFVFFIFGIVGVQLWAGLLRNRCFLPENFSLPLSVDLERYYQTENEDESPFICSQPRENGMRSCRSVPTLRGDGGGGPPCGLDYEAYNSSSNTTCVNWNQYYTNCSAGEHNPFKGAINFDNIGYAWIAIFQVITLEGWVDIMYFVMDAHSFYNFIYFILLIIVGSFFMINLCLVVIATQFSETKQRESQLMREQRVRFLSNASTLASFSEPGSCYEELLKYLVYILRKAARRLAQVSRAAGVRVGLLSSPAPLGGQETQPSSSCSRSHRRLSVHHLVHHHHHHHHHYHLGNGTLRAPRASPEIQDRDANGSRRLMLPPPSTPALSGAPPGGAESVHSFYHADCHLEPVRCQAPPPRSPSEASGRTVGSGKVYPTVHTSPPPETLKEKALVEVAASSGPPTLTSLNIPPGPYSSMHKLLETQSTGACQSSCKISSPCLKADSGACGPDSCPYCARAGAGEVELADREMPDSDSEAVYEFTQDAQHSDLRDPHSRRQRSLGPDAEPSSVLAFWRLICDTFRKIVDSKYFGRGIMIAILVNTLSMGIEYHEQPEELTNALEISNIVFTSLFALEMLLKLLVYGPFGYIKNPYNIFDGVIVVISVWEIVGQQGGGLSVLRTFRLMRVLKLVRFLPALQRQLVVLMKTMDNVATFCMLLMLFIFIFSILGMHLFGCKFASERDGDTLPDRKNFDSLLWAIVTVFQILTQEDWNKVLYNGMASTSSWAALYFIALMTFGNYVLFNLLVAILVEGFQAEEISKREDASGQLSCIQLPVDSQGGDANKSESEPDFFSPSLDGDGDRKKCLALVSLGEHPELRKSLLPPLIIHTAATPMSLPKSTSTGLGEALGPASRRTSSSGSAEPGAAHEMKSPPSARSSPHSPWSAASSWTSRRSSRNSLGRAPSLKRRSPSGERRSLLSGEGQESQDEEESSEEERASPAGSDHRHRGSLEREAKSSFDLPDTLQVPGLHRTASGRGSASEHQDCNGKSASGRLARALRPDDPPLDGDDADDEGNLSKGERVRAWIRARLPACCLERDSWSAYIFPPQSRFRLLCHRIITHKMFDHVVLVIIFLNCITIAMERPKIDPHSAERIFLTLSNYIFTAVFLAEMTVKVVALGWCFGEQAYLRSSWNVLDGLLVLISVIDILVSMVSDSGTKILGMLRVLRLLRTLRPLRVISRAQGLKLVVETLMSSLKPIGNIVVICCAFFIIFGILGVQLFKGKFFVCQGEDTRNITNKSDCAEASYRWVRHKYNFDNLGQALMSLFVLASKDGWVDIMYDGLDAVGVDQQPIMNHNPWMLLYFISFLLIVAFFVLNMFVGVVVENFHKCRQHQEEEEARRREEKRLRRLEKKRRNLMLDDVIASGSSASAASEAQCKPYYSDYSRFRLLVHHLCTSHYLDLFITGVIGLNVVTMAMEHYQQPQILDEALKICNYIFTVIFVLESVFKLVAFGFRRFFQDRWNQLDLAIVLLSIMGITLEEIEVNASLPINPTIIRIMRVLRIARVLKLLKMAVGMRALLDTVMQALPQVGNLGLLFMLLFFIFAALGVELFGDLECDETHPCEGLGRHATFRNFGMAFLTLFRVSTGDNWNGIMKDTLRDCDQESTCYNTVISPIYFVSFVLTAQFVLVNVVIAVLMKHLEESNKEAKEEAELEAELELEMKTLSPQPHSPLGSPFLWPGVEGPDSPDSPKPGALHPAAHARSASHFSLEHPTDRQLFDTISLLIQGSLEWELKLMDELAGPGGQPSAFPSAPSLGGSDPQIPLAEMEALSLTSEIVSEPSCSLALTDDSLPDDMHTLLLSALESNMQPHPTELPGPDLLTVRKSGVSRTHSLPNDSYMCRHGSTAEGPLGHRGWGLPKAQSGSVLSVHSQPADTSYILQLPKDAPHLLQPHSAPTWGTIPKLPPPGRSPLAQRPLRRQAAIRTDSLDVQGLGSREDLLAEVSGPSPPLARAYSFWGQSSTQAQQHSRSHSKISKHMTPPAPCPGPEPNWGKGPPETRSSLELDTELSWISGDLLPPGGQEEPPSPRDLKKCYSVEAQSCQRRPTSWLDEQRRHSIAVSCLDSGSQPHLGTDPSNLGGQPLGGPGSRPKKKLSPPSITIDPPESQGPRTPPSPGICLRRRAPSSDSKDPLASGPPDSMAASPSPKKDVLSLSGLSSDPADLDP

Broadly, the melting point is the temperature, or range, at which the solid turns liquid. Turning to `COc1cccc(NC(=O)CC2CSC(=NC3CCCCC3)N2C)c1.Cl` (stereo not shown) [KHG24076, (2-cyclohexylimino-3-methyl-1,3-thiazolidine-4-yl)-N-(3-methoxyphenyl)-acetamide hydrochloride], the melting point is 156 to 158 °C. Further, in data set [1], the inhibition at 10 µM amounted to 39.9%.

The compound `CN1C(=NC2CCCCC2)SCC1CC(=O)Nc1ccc(F)cc1F.Cl` (stereo not shown) [KHG24081, (2-cyclohexylimino-3-methyl-1,3-thiazolidine-4-yl)-N-(2,4-difluorophenyl)-acetamide hydrochloride] gave a melting point of 206 to 208 °C. For the same compound, in data set [1], the inhibition at 10 µM turned out to be 38.3%.

Consider `Cc1ccccc1CNC(=O)CC1CSC(=NC2CCCCC2)N1C.Cl` (stereo not shown) [KHG24082, (2-cyclohexylimino-3-methyl-1,3-thiazolidine-4-yl)-N-(2-methylbenzyl)-acetamide hydrochloride], for which the melting point lay in the range of 220 to 221 °C. Besides, the inhibition at 10 µM in data set [1] worked out at 37.4%.

In turn, `CCOC(=O)CCOc1cccc(NC(=O)CC2CSC(=NC3CCCCC3)N2C)c1.Cl` (stereo not shown) [KHG24085, (2-cyclohexylimino-3-methyl-1,3-thiazolidine-4-yl)-N-(3-ethoxycarbonylethoxyphenyl)-acetamide hydrochloride] came in with a melting point of 241 to 242 °C. Moreover, the inhibition at 10 µM in data set [1] worked out at 52.6%.

`CN1C(=NC2CCCCC2)SCC1CC(=O)NCc1ccc(Cl)c(Cl)c1.Cl` (stereo not shown) [KHG24088, (2-cyclohexylimino-3-methyl-1,3-thiazolidine-4-yl)-N-(3,4-dichlorobenzyl)-acetamide hydrochloride] came in with a melting point of 215 to 216 °C. Further, in data set [1], the inhibition at 10 µM is 43.2%.

`COc1ccc(NC(=O)CC2CSC(=NC3CCCCC3)N2C)cc1OC.Cl` (stereo not shown) [KHG24090, (2-cyclohexylimino-3-methyl-1,3-thiazolidine-4-yl)-N-(3,4-dimethoxyphenyl)-acetamide hydrochloride]: the melting point is 233 to 234 °C. The inhibition at 10 µM in data set [1] is 32.1%.

The compound `Cc1ccc(NC(=O)CC2CSC(=NC3CCCCC3)N2C)cc1F.Cl` (stereo not shown) [KHG24091, (2-cyclohexylimino-3-methyl-1,3-thiazolidine-4-yl)-N-(3-fluoro-4-methylphenyl)-acetamide hydrochloride] registered a melting point of 210 to 212 °C. Besides, in data set [1], the inhibition at 10 µM is 30.3%.

`CN1C(=NC2CCCC2)SCC1CC(=O)Nc1ccc(F)cc1Cl.Cl` (stereo not shown) [KHG24095, (2-cyclopentylimino-3-methyl-1,3-thiazolidine-4-yl)-N-(2-chloro-4-fluorophenyl)-acetamide hydrochloride]: the melting point lay within 209 to 210.5 °C. For the same compound, in data set [1], the inhibition at 10 µM was 30.5%.

`CN1C(=NC2CCCC2)SCC1CC(=O)Nc1ccc(Br)cc1.Cl` (stereo not shown) [KHG24098, (2-cyclopentylimino-3-methyl-1,3-thiazolidine-4-yl)-N-(4-bromophenyl)-acetamide hydrochloride] gave a melting point of 228 to 228.5 °C. Moreover, the inhibition at 10 µM in data set [1] was determined as 50.5%.

`CN1C(=NC2CCCC2)SCC1CC(=O)Nc1ccc(Oc2ccccc2)cc1.Cl` (stereo not shown) [KHG24099, (2-cyclopentylimino-3-methyl-1,3-thiazolidine-4-yl)-N-(4-phenoxyphenyl)-acetamide hydrochloride] registered a melting point of 230 to 230.5 °C. Besides, in data set [1], the inhibition at 10 µM turned out to be 58.2%.

Turning to `CN1C(=NC2CCCC2)SCC1CC(=O)Nc1cc(Cl)cc(Cl)c1.Cl` (stereo not shown) [KHG24100, (2-cyclopentylimino-3-methyl-1,3-thiazolidine-4-yl)-N-(3,5-dichlorophenyl)-acetamide hydrochloride], the melting point was 231 to 232.5 °C. In addition, the inhibition at 10 µM in data set [1] turned out to be 60.8%.

In turn, `CN1C(=NC2CCCC2)SCC1CC(=O)Nc1cc(Cl)ccc1F.Cl` (stereo not shown) [KHG24103, (2-cyclopentylimino-3-methyl-1,3-thiazolidine-4-yl)-N-(5-chloro-2-fluorophenyl)-acetamide hydrochloride] returned a melting point of 214 to 216 °C. Also, the inhibition at 10 µM in data set [1] is 45%.

`CN1C(=NC2CCCC2)SCC1CC(=O)Nc1cc([N+](=O)[O-])ccc1F.Cl` (stereo not shown) [KHG24104, (2-cyclopentylimino-3-methyl-1,3-thiazolidine-4-yl)-N-(2-fluoro-5-nitrophenyl)-acetamide hydrochloride] returned a melting point of 234.5 to 236 °C. Also, the inhibition at 10 µM in data set [1] came to 34.3%.

Consider `CN1C(=NC2CCCC2)SCC1CC(=O)Nc1ccc(Cl)cc1F.Cl` (stereo not shown) [KHG24105, (2-cyclopentylimino-3-methyl-1,3-thiazolidine-4-yl)-N-(4-chloro-2-fluorophenyl)-acetamide hydrochloride], for which the melting point is 228 to 230.5 °C. Moreover, in data set [1], the inhibition at 10 µM was 40.4%.

With `CN1C(=NC2CCCC2)SCC1CC(=O)Nc1ccc(Cl)cc1.Cl` (stereo not shown) [KHG24106, (2-cyclopentylimino-3-methyl-1,3-thiazolidine-4-yl)-N-(4-chlorophenyl)-acetamide hydrochloride], the melting point fell in the range of 215 to 216 °C. Also, in data set [1], the inhibition at 10 µM was determined as 49.4%.

Take `CN1C(=NC2CCCCC2)SCC1CC(=O)Nc1cccc([N+](=O)[O-])c1.Cl` (stereo not shown) [KHG24108, (2-cyclohexylimino-3-methyl-1,3-thiazolidine-4-yl)-N-(3-nitrophenyl)-acetamide hydrochloride]: the melting point was 207 °C. Moreover, in data set [1], the inhibition at 10 µM turned out to be 44.4%.

The compound `CN1C(=NC2CCCCC2)SCC1CC(=O)Nc1cccc(F)c1.Cl` (stereo not shown) [KHG24109, (2-cyclohexylimino-3-methyl-1,3-thiazolidine-4-yl)-N-(3-fluorophenyl)-acetamide hydrochloride] gave a melting point of 238 to 239.5 °C. Moreover, the inhibition at 10 µM in data set [1] is 48.4%.

For `Cc1cc(NC(=O)CC2CSC(=NC3CCCCC3)N2C)ccc1Br.Cl` (stereo not shown) [KHG24111, (2-cyclohexylimino-3-methyl-1,3-thiazolidine-4-yl)-N-(4-bromo-3-methylphenyl)-acetamide hydrochloride], the melting point lay within 237 to 238 °C. For the same compound, the inhibition at 10 µM in data set [1] amounted to 67.7%.

Regarding `CN1C(=NC2CCCCC2)SCC1CC(=O)NCc1ccc(F)cc1.Cl` (stereo not shown) [KHG24112, (2-cyclohexylimino-3-methyl-1,3-thiazolidine-4-yl)-N-(4-fluorobenzyl)-acetamide hydrochloride], the melting point is 200 to 201 °C. Further, in data set [1], the inhibition at 10 µM came out at 30.3%.

In the case of `CC(C)c1ccc(NC(=O)CC2CSC(=NC3CCCC3)N2C)cc1.Cl` (stereo not shown) [KHG24115, (2-cyclopentylimino-3-methyl-1,3-thiazolidine-4-yl)-N-(4-isopropylphenyl)-acetamide hydrochloride], the melting point was in the range of 213 to 215.5 °C. Moreover, the inhibition at 10 µM in data set [1] came out at 49.9%.

Take `CCCCc1ccc(NC(=O)CC2CSC(=NC3CCCC3)N2C)cc1.Cl` (stereo not shown) [KHG24116, (2-cyclopentylimino-3-methyl-1,3-thiazolidine-4-yl)-N-(4-n-butylphenyl)-acetamide hydrochloride]: the melting point fell in the range of 216 to 217.5 °C. Further, the inhibition at 10 µM in data set [1] came to 65.4%.

Compound `CN1C(=NC2CC2)SCC1CC(=O)Nc1ccc(Oc2ccccc2)cc1.Cl` (stereo not shown) [KHG24141, (2-cyclopropylimino-3-methyl-1,3-thiazolidine-4-yl)-N-(4-phenoxyphenyl)-acetamide hydrochloride] displayed a melting point of 219.5 to 220 °C. Moreover, the inhibition at 10 µM in data set [1] was determined as 35.7%.

`CCCCc1ccc(NC(=O)CC2CSC(=NC3CC3)N2C)cc1.Cl` (stereo not shown) [KHG24152, (2-cyclopropylimino-3-methyl-1,3-thiazolidine-4-yl)-N-(4-n-butylphenyl)-acetamide hydrochloride]: the melting point lay within 227.5 to 228.5 °C. Moreover, the inhibition at 10 µM in data set [1] turned out to be 33.9%.

The values above are taken from patent US7998989B2, “2-Imino-1,3-thiazoline-based compounds and T-type calcium channel inhibitors containing the same” (Korea Institute of Science and Technology, priority 2007, dated 2011).
